How the values were obtained:
B16-mhgp100 tumors [1] = experiment: Anti-tumor efficacy in B16 melanoma model, citrate vs potassium hydroxycitrate; assay type: in vivo, mice; conditions: T cells cultured in potassium hydroxycitrate or citrate; FIGS. 17A-17C
Human CD8+ TILs = experiment: CD62L expression of human CD8+ TILs during rapid expansion, FACS; assay type: cell-based; conditions: 5 mM
Procedure: Human CD8^+ TILs from various histologies were cultured in the presence or absence (control) of potassium hydroxycitrate (5 mM). In brief, TILs from fresh tumor digests were subjected with 30 ng ml^−1 OKT3 to a rapid expansion protocol (REP) using irradiated peripheral blood mononuclear cells (PBMC) grown cultured in 3,000 IU ml-1 IL-2 in RPMI 1640 and AIM-V, supplemented with 5% in-house human serum 100 μg ml^−1 streptomycin and 100 μg ml^−1 penicillin, 2 mM 1-glutamine, 10 μg ml^−1 gentamicin, for approximately 14 days.
Expression of CD62L was measured by FACS. […] Specifically, FIG. 20 presents representative FACS data for human TIL showing relatively higher expression of the lymphoid homing marker CD62L during TIL expansion for potassium hydroxycitrate cultured TILs as compared to control TILs ([…], 14% increase). FIG. 21 is a graph showing the percentages of cells (% of maximum) expressing CD62L following treatment with negative control or potassium hydroxycitrate. FIGS. 22A and 22B show the quantification of the data shown in FIG. 21 for CD45RO^+ CD62L^+ for two patient samples (Patient A and Patient B).

T cells [2] = experiment: Acetate rescue: CD62L and IFN-γ by FACS; assay type: cell-based, mouse; conditions: control 49.4
From the text: (§1) For all flow cytometry experiments, T cells were stained with a fixable live/dead stain (Invitrogen, Waltham, MA) in phosphate buffered saline (PBS) followed by surface antibody staining in FACS buffer (PBS with 0.5% bovine serum albumin (BSA) and 0.1% sodium azide). For intracellular cytokine staining, cells were first stained for surface markers and later stained for intracellular molecules following fixation and permeabilization (BD CYTOFIX/CYTOPERM fixation/permeabilization solution kit). For phospho-staining, BD PHOSFLOW reagents (BD Biosciences) were used and protocols were carried out according to the manufacturer's protocols. After washing, cells were stained with phospho-antibodies purchased from Cell Signaling (Danvers, MA). […] All experiments were conducted on a BD FORTESSA flow cytometer (Becton Dickinson, Downers Grove, IL) and analyzed with FLOWJO software (TreeStar, Ashland, OR).
T cells were treated with a combination of potassium hydroxycitrate and acetate, potassium hydroxycitrate alone, or negative control. Expression of CD62L was measured by fluorescence-activated cell sorting (FACS).
IFN-γ secretion was also measured by FACS (Table D) and quantified (FIG. 13) following treatment with control, potassium hydroxycitrate alone, or a combination of potassium hydroxycitrate and acetate.

T cells [3] = experiment: Autophagy by immunoblot, LC3II/LC3I ratio; assay type: cell-based, mouse; conditions: acetate 5 mM where present, control 0.7
Procedure: Ablation of autophagy was measured by immunoblot following treatment with a combination of potassium hydroxycitrate and 5 mM acetate, potassium hydroxycitrate only, or control (neither potassium hydroxycitrate nor acetate). Beta-actin was used as a control. Quantification of the autophagy flux was represented by ratio of LC3II/LC3I intensities.

B16-mhgp100 tumors [4] = experiment: Anti-tumor efficacy after adoptive transfer of treated Pmel-1 T cells; assay type: in vivo, mice; conditions: FIGS. 5, 6, 11
CD8+ Pmel-1 T cells [5] = experiment: Flow cytometry of CD62L/CD44 and IFN-γ production; assay type: cell-based, mouse; conditions: 5 mM
Procedure: CD8^+ T cells from Pmel-1 mice were stimulated in vitro with 1 μM hgp10025-33 peptide for 5 days and secondary restimulation was done with plate-bound anti-CD3 (1 μg/ml; BD Biosciences, Franklin Lakes, NJ) and soluble anti-CD28 (1 μg/ml; BD Biosciences) and expanded in culture medium containing 60 IU of IL-2. The conditions control/potassium hydroxycitrate (FIG. 7) were activated in the above conditions for a total of 10 days. For measuring T cell effector function, these cells were stimulated on day 10 in the indicated conditions for 5 h with anti-CD3 and -CD28 without IL-2 in the presence of brefeldin A and monesin (BD Biosciences).
as §1
(§2) CD8+ Pmel-1 T cells were activated with mhgp100 peptide for 5 days in the presence of 5 mM potassium hydroxycitrate followed by secondary stimulation with anti-CD3 (1 μg/ml) and anti-CD28 (1 μg/ml) (FIG. 7A). Cells were analyzed for surface markers or intracellular cytokines on day 10.
Representative flow cytometry analysis and quantification of CD62L vs CD44 positive cells and IFN-γ+ production in T cells cultured in control or 2-hydroxy citrate (potassium hydroxycitrate (5 mM)) are shown in Table B and FIGS. 7A and 7B. […]

human TIL = experiment: TNF and IL-2 expression of human TIL by FACS; assay type: cell-based; conditions: 2.5 or 5 mM, vs vehicle
Procedure: Human TIL were cultured without stimulation, in vehicle, or in potassium hydroxycitrate (2.5 or 5 mM). The cells were analyzed for the expression of tumor necrosis factor (TNF) and IL-2.

[6] = test system: transferred Ly5.1+ CD8+ T cells in mice bearing B16-mhgp100 tumors; experiment: Persistence of transferred T cells in spleen of tumor-bearing mice; assay type: in vivo
[7] = test system: adoptively transferred CD8+Ly5.1+ T cells; assay type: in vivo, mice; conditions: challenge with vaccinia rhgp100 1×10^7 PFU; negative control 7.8
[8] = test system: IFN-γ locus in CD8+ Pmel-1 cells; experiment: ChIP-PCR of H3K9Ac deposition at the IFN-γ locus; assay type: cell-based, mouse; conditions: vs negative control; FIG. 2C
Procedure: Chromatin Immunoprecipitations were performed with validated antibodies from previous literatures (Gray et al., Immunity, 46(4): 596-608 (2017); Peng et al., Science, 354(6311): 481-484 (2016)) and protocols were followed according to manufacturing instructions provided by the CHIP-IT express shearing kit (Active Motif, Carlsbad, CA). Briefly, CD8+ Pmel-1 cells were fixed with formaldehyde for 7 minutes on a rocking platform and quenched with 1× of Glycine. Cells were pelleted with phenylmethylsulfonyl fluoride (PMSF) and protein inhibition cocktail and stored at −80 prior to cell lysis. Thawed cells were suspended in ice cold lysis buffer to obtain nuclei material. Nuclei material was sheared by incubating with enzymatic cocktail for 15 minutes at 37° C. Sheared chromatin with a total of 7.5 μg/sample was incubated with protein G magnetic beads with anti-H3K27Ac (Abcam Cat #ab4729), H3k9Ac (Abcam Cat #ab4441) (Abcam, Cambridge, UK) and anti IgG at 4° C. overnight. Magnetic beads were washed with buffers to remove unbound immune complexes and eluted with 150 μl of elution buffer. […] Concentration of the ChIP DNA was measured with high sensitive DNA assay protocol on tape station to normalize the DNA. Samples were sequenced on illumina Next seq system (Illumina, San Diego, CA) with 75 bp reads in single end mode with approximately 40M reads per sample. […]

CD8+ Pmel-1 T cells [9] = experiment: Annexin V/PI FACS of live, apoptotic and necrotic populations; assay type: cell-based, mouse
Procedure: as §2
Representative FACS data defining the percentages of live (Annexin V−PI−), apoptotic (Annexin V+PI−) and necrotic populations (Annexin V+PI+) cultured in control or potassium hydroxycitrate are provided in Table C and FIG. 8.

T cells [10] = experiment: Autophagy flux, GFP-mCherry-LC3b reporter, flow cytometry; assay type: cell-based, mouse
T cells [11] = experiment: Cytoplasmic citrate and AcCoA quantification in treated T cells; assay type: cell-based, mouse
Procedure: T cells (n=3) cultured in control or potassium hydroxycitrate conditions were collected and washed in PBS to perform the total and cytoplasmic AcCoA and citrate levels. Samples were homogenized in 1% TRITON X-100 nonionic surfactant, 20 mM Tris-HCl, pH=7.4, 150 mM NaCl on ice for 10 min (Sigma Acetyl-Coenzyme A Assay Kit—MAK039) or citrate buffer (Sigma Citrate Assay Kit—MAK057) (Sigma, St. Louis, MO) as per the directions provided in the kit. For total AcCoA quantification, pelleted cells were extracted using 80% methanol or 5% sulfo-salicylic acid with 50 μM DTT. After cell lysis, samples were deproteinized with a 10 kDa molecular weight cut-off (MWCO) spin filter prior to the assay. AcCoA concentrations were interpolated with AcCoA standards using fluorometric assay (Ex=535, Em=587) or by mass spectrometry. Citrate concentrations were interpolated with citrate standards using colorimetric assay (570 nm). […]
Cytoplasmic citrate and cytoplasmic AcCoA were quantified following treatment of cells with potassium hydroxycitrate or negative control. […]
Cytoplasmic AcCoA was quantified following treatment with a combination of potassium hydroxycitrate and 5 mM acetate, potassium hydroxycitrate only, or control (neither potassium hydroxycitrate nor acetate) (FIG. 14).

O=C(O)CC(O)(CC(=O)O)C(=O)O [Citrate, reference compound]
antitumor efficacy in a B16 melanoma model (B16-mhgp100 tumors [1]): but not citrate improves antitumor efficacy

O=C([O-])CC(O)(C(=O)[O-])C(O)C(=O)[O-].[K+].[K+].[K+] (stereo not shown) [Potassium hydroxycitrate, potassium hydroxycitrate]
CD62L expression, representative FACS data (Human CD8+ TILs; about 14 days REP, control 56.2, FIG. 20): 66.6
expression of the lymphoid homing marker CD62L during TIL expansion (Human CD8+ TILs; vs control): maintained relatively higher expression
increase of CD62L expression vs control TILs (Human CD8+ TILs; FIG. 20): 14%
percentage of IFN-γ positive cells (T cells [2]): 18.2%
autophagy flux, ratio of LC3II/LC3I intensities (T cells [3]): 2.1
antitumor efficacy (B16-mhgp100 tumors [4]): improved antitumor efficacy
percentage of cells CD44+ CD62L+ (CD8+ Pmel-1 T cells [5]; day 10, negative control 3.5): 30.7%
percentage of cells IFN-γ+ (CD8+ Pmel-1 T cells [5]; day 10, negative control 59.3): 14.2%
effector differentiation (CD8+ Pmel-1 T cells [5]; vs control): blockade of effector differentiation
poly-functionality (TNF and IL-2 expression) (human TIL): improves poly-functionality of human TIL
antitumor efficacy in a B16 melanoma model (B16-mhgp100 tumors [1]): improves antitumor efficacy
in vivo persistence following adoptive transfer ([6]; T cells cultured in potassium hydroxycitrate vs control): enhanced in vivo persistence
percentage Ly5.1+ CD8+ T cells in spleen ([6]; day 7 after transfer, tumor-bearing mice, negative control 9.2): 46.3%
% Ly5.1+ CD8+ T cells, recall response [7]: 25.9%
H3K9Ac deposition at the IFN-γ locus (ChIP-PCR quantification) [8]: reduced H3K9Ac deposition
percentage of cells PI+ Annexin+ (necrotic) (CD8+ Pmel-1 T cells [9]; negative control 9.74): 2.4%
percentage of cells PI− Annexin+ (apoptotic) (CD8+ Pmel-1 T cells [9]; negative control 18.1): 1.6%
percentage of cells PI− Annexin− (live) (CD8+ Pmel-1 T cells [9]; negative control 71.0): 95.2%
cellular apoptosis (CD8+ Pmel-1 T cells [9]; vs control): reduced cellular apoptosis
percentage of mCherry positive cells which are GFP− (T cells [10]; flow cytometry, loss of GFP = autophagic flux, negative control 12.1): 33.2%
percentage of mCherry positive cells which are GFP+ (T cells [10]; flow cytometry, negative control 83.0): 60.8%
autophagy (T cells [10]; vs negative control): Enhanced autophagy
cytoplasmic citrate (T cells [11]; T cells treated with potassium hydroxycitrate (ACLY inhibitor) vs negative control, FIG. 2A): citrate accumulation
cytoplasmic AcCoA (T cells [11]; T cells treated with potassium hydroxycitrate vs negative control, FIG. 2B): depletion of cytoplasmic AcCoA
